US20100274500A1, “METHOD AND SYSTEM FOR MEASURING MEMBRANE POTENTIAL BASED ON FLUORESCENCE POLARIZATION” (Seng Enterprises Ltd., priority 2006, published 2010)
Where “and” joins values, the source holds several entries; their conditions need not be identical. Identical values can stand only once.

Legend:
U937 cells = test: Spectroscopic measurements in whole and ruptured cells stained with Rh123; assay type: cell-based
Procedure: There were two main goals to these experiments. The first goal was to ascertain whether a fluorescence intensity decreases in cells treated with CCCP, and similarly, to ascertain whether fluorescence intensity increases in cells treated with Nigericin. The second goal was to learn about the characteristics and amount of influence of the cellular medium on the Rh123 spectroscopic properties.
The cells were stained with Rh123 at a concentration of 3 μM and suspended in PBS, at a cell concentration of 350,000/ml. At this cell concentration, no scattered signal was detected in the fluorescence measurement setup.
The measurement was conducted in CARY spectrofluorometer. The excitation was performed at 480±10 nm and the fluorescence was collected using a 530±10 nm filter. The cell suspension was divided into 4 aliquots in volumes of 2 ml, each. First, the spectrum for all the parts was measured and a comparison was performed to verify equal cell concentration in each quota. Second, parts 3 and 4 were treated with CCCP, while acetone was added to parts 1 and 2, at the same concentration and volume as that in which the CCCP was dissolved, and a spectrum measurement was made. At the end of this process, parts 1 and 3 were ruptured by sonication (VCX 130, Sonics and Materials Inc, Newtown, USA), and parts 2 and 4 were centrifuged and the supernatant was removed to measure the background.
Since there are differences in the emission spectrum of Rh123 in the mitochondria and cytoplasm, the area under the emission graphs must also be calculated in estimating the given spectral effect of CCCP. The area is proportionate to the number of emitting molecules and not to the measured intensity.
Cell preparation and measurement were conducted using the Cary system, and were identical to those with CCCP, except that Nigericin was used for […] the cells.
The overall emission intensity was calculated as above for CCCP to investigate the cause of the fluorescence intensity increase by calculating the area below the emission graph. The columns show average values and standard deviation values of at least two identical experiments. The stars indicate the significant statistical differences before the ANOVA test.

U937 promonocytic cells [1] = test: Fluorescence lifetime measurements in U937 cells stained with Rh123; assay type: cell-based; conditions: for f1(weight) / α1(decay) / τ1(lifetime): long lifetime component (attributed to cytoplasm); for f2(weight) / α2(decay) / τ2(lifetime): short lifetime component (attributed to mitochondria); for fluorescence signal from the probe located in the mitochondria: weight of the short decay component
Procedure: Cell treatment: U937 promonocytic cells were treated with an oxidative phosphorylation uncoupler CCCP and Nigericin as described hereinabove.
Cell staining: Cells were stained by treating with Rh123 and loaded in cell chips.
Fluorescence lifetime measurement: Measurements were carried out using polarizers that were set at magic […]. Rh123 was excited by a 488 nm laser line. Fluorescence testing was conducted from 500 nm wavelengths and above (toward the red area).
The results were obtained from an average, encompassing 30 evaluations, with standard deviations recorded accordingly. The outstanding result is the fact that two lifetime groups were obtained, one long—above 4 nanoseconds—and one short—below 3 nanoseconds. In order to determine which region correlates with which lifetime group both the lifetimes and the weights were considered.

U937 promonocytic cells [2] = test: Fluorescence polarization measurements in U937 cells stained with Rh123; assay type: cell-based; conditions: for Mean Polarization: average based on 300 U937 cells stained with Rh123; for Mean Polarization / Mean FP, Left Cell / Mean FP, Right Cell: CCCP 5 μM or Nigericin 5 μg/ml, 15 minutes; for Mean FP, Left Cell / Mean FP, Right Cell: overall polarization of the entire cell, U937 stained with Rh123
Procedure: Fluorescence polarization (FP) evaluation was conducted using U937 promonocytic cells under the following physiological conditions: control, following treatment with CCCP and following treatment with Nigericin. All the cells were stained with Rh123, rinsed, loaded in cell chips and then measured. Cell treatment: U937 promonocytic cells were treated with an oxidative phosphorylation uncoupler CCCP (commercially available from Sigma-Aldrich) at a concentration of 5 μM and Nigericin (commercially available from Sigma-Aldrich) at 5 μg/ml for 15 minutes. Cell staining: Cells were stained by treating with […] Rh123 and loaded in cell chips. Fluorescence polarization measurement: Transmitted light images and fluorescence images were obtained parallel to the excitation field (excitation and emission polarizers set at 0°), and perpendicular to it, with the excitation polarizer set at 0°, and the emission polarizer set at 90°. From every pair of parallel and perpendicular images, the FP value was calculated for each pixel, using the following equation and a polarization map was created according to the following equation: In order to obtain a calibration reference point, the polarization value was obtained from the entire cell. […] Accordingly, a cell chip was used which allowed defining the borders of the cell by means of images of the cell received through transmitted light photographs. The borders were projected on the polarization map and the FP average was calculated for each cell. This process was implemented to evaluate all the cells, and a general average was obtained for each given physiological state.

[3] = system: mitochondria of U937 cells; test: Mitochondrial membrane potential derived from lifetime decay weights with the Nernst equation; assay type: cell-based; conditions: estimated with the f value, Nernst equation at 300° K, VC/VM≅500, U937 cells treated with CCCP
Excerpt: The following example describes the use of weights ƒ and/or α, decay components, to estimate the probe concentration in the mitochondria and the cytoplasm and from this to derive the membrane potential using the Nernst Equation.
The weight is proportional to the total measured fluorescence signal from an area with a certain fluorescence lifetime. In relying on the results of the measurement, it can be assumed that the decay level in the mitochondria and the cytoplasm is equal and, therefore, is not taken into consideration. In order to convert the weight ratio to concentration ratios, it is necessary to multiply them by the inverted volume ratio, i.e., VC/VM (C-Cytoplasm, M-Mitochondria). Given that this ratio is constant for a certain type of synchronized cells, [data not shown], despite the complex measurement-calculation, it is enough to execute this operation only once.
Considering the Nernst equation at 300° K and the measured fluorescence signal: […]

[4] = Direct influence of viscosity (glycerol) on FLT and FP of Rh123 and NAO; assay type: physicochemical; conditions: Rh123 5 μg/ml, NAO 10 μM
Procedure: In these tests, the fluorescence lifetime τF was also measured along with the rotational decay time τR. For this, Rh123 (5 μg/ml) and suspension NAO (10 μM) were dissolved in three glycerol suspensions (30%, 60% and 80% v/v) in PBS. Each measurement was performed in triplicate.

[5] = Direct influence of pH on the fluorescence lifetime of Rh123 and NAO; assay type: physicochemical; conditions: Rh123 5 μg/ml, NAO 10 μM
Procedure: The intra-cellular environment is heterogeneous and multi-phased; therefore, changes may occur in the acidity level in different regions in the cell. Measurements were executed, for this reason, to test if the acidic level has any influence on the fluorescence lifetime of the Rh123. The measurements were conducted in a K2 system, in a suspension of Rh123 with a concentration of 13 μM and the suspension of NAO, in a concentration of 10 μM with an acidity level of 6.0, 7.4 and 8.5.

[6] = Direct influence of CCCP and Nigericin on emission spectrum, polarization and lifetime of Rh123 in suspension
Procedure: A suspension of Rh123 at a concentration of 0.5 μg/ml was prepared. The suspension was divided into three aliquots, each containing a volume of 1 ml. To the first part was added 2.5 μl of PBS. To the second part was added 2.5 μl CCCP at a concentration of 2 mM, so that a final concentration of 5 μM CCCP was reached. To the third part was added 2.5 μl of Nigericin, at a concentration of 2 mg/ml, so that a final concentration of 5 μg/ml Nigericin was reached.
In the first stage, the emission spectrum of the suspension was obtained, using CARY ECLIPSE. The suspensions were excited with 480 nm light and the fluorescence was measured between 500-600 nm, while the slits (emission and excitation) were 2.5 nm.
The direct influence of CCCP and/or Nigericin were tested on the same suspensions of Rh123, measuring the lifetimes in contrast to the control.

## N#CC(C#N)=NNc1cccc(Cl)c1 [CCCP]
U937 cells; ruptured U937 cells stained with Rh123, with and without CCCP
  number of fluorescent molecules (overall emission intensity following cell rupture): does not diminish the number of fluorescent molecules
U937 cells; supernatant of U937 cells stained with Rh123 following CCCP treatment
  leakage of the probe (background signal of the suspending solution): causes leakage from the entire cell
U937 cells; whole U937 cells stained with Rh123 3 μM, 534 nm before CCCP
  emission maximum wavelength of intra-cellular Rh123 following activation of CCCP: 532 nm
U937 promonocytic cells [1]
  f1(weight): 0.867
  α1(decay): 0.690 ± 0.105
  τ1(lifetime): 4.27 nsec and 4.271 ± 0.292 nsec
  f2(weight): 0.133
  α2(decay): 0.310 ± 0.100
  τ2(lifetime): 1.475 ± 0.423 nsec
  fluorescence signal from the probe located in the mitochondria: about 30%
U937 promonocytic cells [2]
  Mean Polarization: 0.346 ± 0.013
  Mean FP, Left Cell: 0.343 ± 0.034
  Mean FP, Right Cell: 0.324 ± 0.046
[3]
  Δψ (mitochondrial membrane potential): ~−112.84 mV

## CCCCCCCCC[n+]1c2cc(N(C)C)ccc2cc2ccc(N(C)C)cc21.[Br-] [NAO]
[4]; Glycerin 30% v/v in PBS
  FP: 0.110 ± 0.007
  τF: 1.599 ± 0.072 nsec
  τR (rotational decay time): 0.923 ± 0.181 nsec
[4]; Glycerin 60% v/v in PBS
  FP: 0.179 ± 0.009
  τF: 2.081 ± 0.056 nsec
  τR (rotational decay time): 1.298 ± 0.057 nsec
[4]; Glycerin 80% v/v in PBS
  FP: 0.303 ± 0.004
  τF: 2.556 ± 0.009 nsec
  τR (rotational decay time): 3.888 ± 0.181 nsec
[5]; pH 6.0
  Fluorescence life-time τF: 1.086 ± 0.028 nsec
[5]; pH 7.4
  Fluorescence life-time τF: 1.051 ± 0.003 nsec
[5]; pH 8.5
  Fluorescence life-time τF: 1.066 ± 0.006 nsec

## CO[C@@H]1C[C@@H](C[C@H]2CC[C@H](C)[C@H]([C@@H](C)C(=O)O)O2)O[C@]2(O[C@](C)([C@H]3CC[C@@](C)([C@@H]4O[C@@H]([C@H]5O[C@@](O)(CO)[C@H](C)C[C@@H]5C)C[C@@H]4C)O3)C[C@H]2C)[C@@H]1C [Nigericin]
U937 cells; U937 cells treated prior to rupture, entire emission range
  overall emission intensity from a suspension of ruptured cells: higher than that received from an untreated cell suspension
U937 cells; whole U937 cells stained with Rh123, complete emission range
  overall emission intensity from whole cells: higher than that of untreated cells
U937 promonocytic cells [1]
  f1(weight): 0.330
  α1(decay): 0.138 ± 0.048
  τ1(lifetime): 7.735 ± 0.828 nsec
  f2(weight): 0.670
  α2(decay): 0.862 ± 0.030
  τ2(lifetime): 2.519 ± 0.174 nsec
  fluorescence signal from the probe located in the mitochondria: 86%
U937 promonocytic cells [1]; weight of the long decay component
  fluorescence signal from the probe found in the cytoplasm: 14%
U937 promonocytic cells [2]
  Mean Polarization: 0.258 ± 0.025
  Mean FP, Left Cell: 0.255 ± 0.057
  Mean FP, Right Cell: 0.253 ± 0.048
U937 promonocytic cells [2]; polarization map of U937 cells stained with Rh123, compared with control
  polarization values in the mitochondrial areas: lower

## COC(=O)c1ccccc1-c1c2ccc(=N)cc-2oc2cc(N)ccc12.Cl [Rh123]
[6]
  lifetime of Rh123 in a water suspension (PBS): ~4.2 nsec
[4]; Glycerin 30% v/v in PBS
  FP: 0.090 ± 0.007
  τF: 3.861 ± 0.142 nsec
  τR (rotational decay time): 0.460 ± 0.010 nsec
[4]; Glycerin 60% v/v in PBS
  FP: 0.200 ± 0.005
  τF: 3.536 ± 0.018 nsec
  τR (rotational decay time): 2.219 ± 0.006 nsec
[4]; Glycerin 80% v/v in PBS
  FP: 0.366 ± 0.010
  τF: 3.500 ± 0.211 nsec
  τR (rotational decay time): 8.463 ± 0.047 nsec
[5]; pH 6.0
  Fluorescence life-time τF: 4.204 ± 0.064 nsec
[5]; pH 7.4
  Fluorescence life-time τF: 4.325 ± 0.007 nsec
[5]; pH 8.5
  Fluorescence life-time τF: 4.215 ± 0.037 nsec
